The nature of assay [1]: Antiproliferative activity against human PL45 cells assessed as growth inhibition incubated at 10 uM for 24 hrs by MTT assay relative to control. The assay is classed as functional. To be noted: read-out: GI.
A short description of assay [2]: Antiproliferative activity against human MDA-PATC53 cells assessed as growth inhibition incubated for 24 hrs by MTT assay. The assay is classed as functional, cell-based. Conditions: MDA-PATC53, 24 h.
The target in assay [3] is Fibroblast growth factor receptor (Homo sapiens, UniProt P22607+P11362+P22455+P21802). Description: Inhibition of FGFR (unknown origin) by FRET assay. The assay is classed as protein assay.
Assay [4] addresses Insulin-like growth factor 1 receptor (Homo sapiens, UniProt P08069). The assay is described as follows: Inhibition of IGF1R (unknown origin) by FRET assay.
The next assay relates to T84. Description: Antiproliferative activity against human T84 cells assessed as growth inhibition incubated at 10 uM for 24 hrs by MTT assay relative to control. The assay is classed as functional. To be noted: read-out: GI. (In general: Tetrazolium assays rely on reduction of a dye to a coloured formazan, in cell work by metabolically active cells.)
For assay [5], the target named is Cyclin-dependent kinase 1 (Homo sapiens, UniProt P06493). The assay is described as follows: Inhibition of CDK1 (unknown origin) by FRET assay.
Sequence of Cyclin-dependent kinase 1 (P06493 whole entry): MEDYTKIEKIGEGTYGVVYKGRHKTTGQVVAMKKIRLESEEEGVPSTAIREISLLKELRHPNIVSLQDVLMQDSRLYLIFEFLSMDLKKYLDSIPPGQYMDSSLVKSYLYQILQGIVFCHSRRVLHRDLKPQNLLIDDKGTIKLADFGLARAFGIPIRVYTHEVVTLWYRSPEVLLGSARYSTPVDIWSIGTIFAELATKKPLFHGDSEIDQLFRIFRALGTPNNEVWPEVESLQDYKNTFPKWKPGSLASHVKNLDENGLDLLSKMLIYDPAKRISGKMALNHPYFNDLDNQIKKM
The target in assay [6] is Serine/threonine-protein kinase B-raf (Homo sapiens, UniProt P15056). The assay is described as follows: Inhibition of BRAF (unknown origin) by FRET assay.
Sequence of Serine/threonine-protein kinase B-raf (P15056 whole entry): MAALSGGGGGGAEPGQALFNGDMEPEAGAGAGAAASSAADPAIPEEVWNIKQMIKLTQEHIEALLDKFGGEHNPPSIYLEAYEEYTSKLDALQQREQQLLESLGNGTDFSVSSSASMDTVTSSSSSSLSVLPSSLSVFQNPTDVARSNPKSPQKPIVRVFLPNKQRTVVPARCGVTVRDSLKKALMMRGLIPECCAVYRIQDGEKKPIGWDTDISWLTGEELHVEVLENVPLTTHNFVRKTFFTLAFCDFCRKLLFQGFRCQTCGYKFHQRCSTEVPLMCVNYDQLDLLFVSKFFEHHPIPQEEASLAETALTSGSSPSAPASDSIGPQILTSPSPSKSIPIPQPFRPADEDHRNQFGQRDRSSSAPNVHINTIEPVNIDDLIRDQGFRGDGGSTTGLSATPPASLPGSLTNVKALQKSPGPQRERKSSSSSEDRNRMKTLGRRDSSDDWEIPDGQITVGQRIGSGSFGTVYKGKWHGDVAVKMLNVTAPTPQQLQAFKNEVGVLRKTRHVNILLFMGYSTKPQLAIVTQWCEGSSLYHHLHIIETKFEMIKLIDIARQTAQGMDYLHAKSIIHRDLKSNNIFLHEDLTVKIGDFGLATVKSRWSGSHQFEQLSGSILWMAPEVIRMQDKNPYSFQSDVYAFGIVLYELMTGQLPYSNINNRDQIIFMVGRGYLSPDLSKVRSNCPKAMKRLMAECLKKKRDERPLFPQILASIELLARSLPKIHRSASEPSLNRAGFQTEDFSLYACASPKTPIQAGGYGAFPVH
For the next assay, the system named is MOLT-4. The assay is described as follows: Antiproliferative activity against human MOLT-4 cells assessed as growth inhibition incubated at 10 uM for 24 hrs by MTT assay relative to control. The assay is classed as functional. Conditions: read-out: GI.
Assay [7] can be described thus: Antiproliferative activity against human PL45 cells assessed as growth inhibition incubated for 24 hrs by MTT assay. In kind it is functional, cell-based. To be noted: PL45, 24 h.
The subject of a further assay is BT-549. Description: Antiproliferative activity against human BT-549 cells assessed as growth inhibition incubated at 10 uM for 24 hrs by MTT assay relative to control. In kind it is functional. Conditions: read-out: GI.
Assay [8] can be described thus: Selectivity index, ratio of IC50 for CDK2 (unknown origin) to CDK1 (unknown origin).
The target in assay [9] is Tyrosine-protein kinase JAK1 (Homo sapiens, UniProt P23458). Description: Inhibition of JAK1 (unknown origin) by FRET assay.
Sequence of Tyrosine-protein kinase JAK1 (P23458 whole entry): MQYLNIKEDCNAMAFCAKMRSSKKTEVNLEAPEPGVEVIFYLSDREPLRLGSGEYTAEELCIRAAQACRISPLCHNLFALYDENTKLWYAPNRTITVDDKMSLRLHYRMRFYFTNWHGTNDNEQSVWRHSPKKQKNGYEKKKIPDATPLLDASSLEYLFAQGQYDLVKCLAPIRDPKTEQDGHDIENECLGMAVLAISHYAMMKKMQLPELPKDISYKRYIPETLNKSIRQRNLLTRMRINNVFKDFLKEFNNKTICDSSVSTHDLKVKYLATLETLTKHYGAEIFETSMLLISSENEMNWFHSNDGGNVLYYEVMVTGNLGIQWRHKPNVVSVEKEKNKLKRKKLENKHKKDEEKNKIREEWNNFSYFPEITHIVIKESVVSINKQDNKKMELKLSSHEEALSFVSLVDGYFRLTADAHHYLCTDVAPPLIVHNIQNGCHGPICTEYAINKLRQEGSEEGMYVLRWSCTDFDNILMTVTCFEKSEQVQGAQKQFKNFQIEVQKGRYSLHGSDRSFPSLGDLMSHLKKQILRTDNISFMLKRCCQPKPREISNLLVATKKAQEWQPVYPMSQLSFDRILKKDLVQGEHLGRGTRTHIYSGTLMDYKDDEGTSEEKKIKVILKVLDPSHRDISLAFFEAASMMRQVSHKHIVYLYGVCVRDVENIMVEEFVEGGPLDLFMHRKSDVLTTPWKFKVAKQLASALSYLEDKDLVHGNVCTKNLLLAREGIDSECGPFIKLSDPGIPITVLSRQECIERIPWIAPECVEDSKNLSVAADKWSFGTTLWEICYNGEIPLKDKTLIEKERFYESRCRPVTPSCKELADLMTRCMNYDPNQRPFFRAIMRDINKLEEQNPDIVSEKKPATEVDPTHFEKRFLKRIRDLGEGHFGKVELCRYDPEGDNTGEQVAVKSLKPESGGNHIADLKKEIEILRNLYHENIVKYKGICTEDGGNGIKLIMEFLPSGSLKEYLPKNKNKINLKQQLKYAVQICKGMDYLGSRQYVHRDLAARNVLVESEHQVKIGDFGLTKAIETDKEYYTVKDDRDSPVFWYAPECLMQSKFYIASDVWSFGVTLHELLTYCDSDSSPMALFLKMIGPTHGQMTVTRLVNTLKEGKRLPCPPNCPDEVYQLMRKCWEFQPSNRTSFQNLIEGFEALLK
A further assay deals with MCF7. The assay is described as follows: Antiproliferative activity against human MCF7 cells assessed as growth inhibition incubated at 10 uM for 24 hrs by MTT assay relative to control. To be noted: read-out: GI. In kind it is functional.
In another assay the test system is HT-29. Description: Antiproliferative activity against human HT-29 cells assessed as growth inhibition incubated at 10 uM for 24 hrs by MTT assay relative to control. The assay is classed as functional. Conditions: read-out: GI.
A further assay concerns A-375. Description: Antiproliferative activity against human A-375 cells assessed as growth inhibition incubated at 10 uM for 24 hrs by MTT assay relative to control. The assay is classed as functional. Conditions: read-out: GI.
Assay [10] is described as follows: Antiproliferative activity against human MDA-PATC53 cells assessed as growth inhibition incubated at 10 uM for 24 hrs by MTT assay relative to control. The assay is classed as functional. Conditions: read-out: GI.
The target in assay [11] is Protein-tyrosine kinase 2-beta (Homo sapiens, UniProt Q14289). The assay is described as follows: Inhibition of PTK2B (unknown origin) by FRET assay.
Sequence of Protein-tyrosine kinase 2-beta (Q14289 whole entry): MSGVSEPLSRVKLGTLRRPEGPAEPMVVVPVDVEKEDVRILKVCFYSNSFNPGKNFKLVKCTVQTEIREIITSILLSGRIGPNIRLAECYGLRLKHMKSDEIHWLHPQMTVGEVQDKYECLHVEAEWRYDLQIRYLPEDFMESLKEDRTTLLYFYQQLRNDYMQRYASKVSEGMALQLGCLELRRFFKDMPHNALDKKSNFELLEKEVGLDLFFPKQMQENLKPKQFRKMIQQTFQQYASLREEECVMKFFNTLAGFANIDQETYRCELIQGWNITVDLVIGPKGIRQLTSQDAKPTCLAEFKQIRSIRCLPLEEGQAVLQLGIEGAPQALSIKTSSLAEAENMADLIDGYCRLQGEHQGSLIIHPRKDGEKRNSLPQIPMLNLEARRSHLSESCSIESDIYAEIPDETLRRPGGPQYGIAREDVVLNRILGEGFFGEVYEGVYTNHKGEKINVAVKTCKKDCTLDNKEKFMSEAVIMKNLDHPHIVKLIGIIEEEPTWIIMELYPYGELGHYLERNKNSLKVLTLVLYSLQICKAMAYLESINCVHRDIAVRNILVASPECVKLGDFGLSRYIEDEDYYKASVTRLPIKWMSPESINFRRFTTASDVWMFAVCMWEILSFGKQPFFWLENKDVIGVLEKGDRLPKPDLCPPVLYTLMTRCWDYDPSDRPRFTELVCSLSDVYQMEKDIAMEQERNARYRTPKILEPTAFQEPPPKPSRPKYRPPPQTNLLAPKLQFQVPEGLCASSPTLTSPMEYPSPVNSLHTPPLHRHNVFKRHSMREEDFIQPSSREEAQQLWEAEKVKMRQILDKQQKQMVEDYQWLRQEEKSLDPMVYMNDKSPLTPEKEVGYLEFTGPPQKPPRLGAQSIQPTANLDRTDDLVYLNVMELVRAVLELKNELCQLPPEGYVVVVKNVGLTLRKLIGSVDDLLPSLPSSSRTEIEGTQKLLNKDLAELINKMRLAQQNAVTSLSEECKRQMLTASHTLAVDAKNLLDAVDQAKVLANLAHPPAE
Assay [12] can be described thus: Selectivity index, ratio of IC50 for CDK5 (unknown origin) to CDK1 (unknown origin).
Another assay relates to KG-1. Description: Antiproliferative activity against human KG-1 cells assessed as growth inhibition incubated at 10 uM for 24 hrs by MTT assay relative to control. In kind it is functional. Conditions: read-out: GI.
The test system of a further assay is G-361. The assay is described as follows: Antiproliferative activity against human G-361 cells assessed as growth inhibition incubated at 10 uM for 24 hrs by MTT assay relative to control. The assay is classed as functional. Conditions: read-out: GI.
Assay [13] concerns the target Cyclin-dependent kinase 5 (Homo sapiens, UniProt Q00535). The assay is described as follows: Inhibition of CDK5 (unknown origin) by FRET assay.
Assay [14] has as its target T1, Tyrosine-protein kinase receptor UFO (Homo sapiens, UniProt P30530).
T1 sequence (P30530 whole entry): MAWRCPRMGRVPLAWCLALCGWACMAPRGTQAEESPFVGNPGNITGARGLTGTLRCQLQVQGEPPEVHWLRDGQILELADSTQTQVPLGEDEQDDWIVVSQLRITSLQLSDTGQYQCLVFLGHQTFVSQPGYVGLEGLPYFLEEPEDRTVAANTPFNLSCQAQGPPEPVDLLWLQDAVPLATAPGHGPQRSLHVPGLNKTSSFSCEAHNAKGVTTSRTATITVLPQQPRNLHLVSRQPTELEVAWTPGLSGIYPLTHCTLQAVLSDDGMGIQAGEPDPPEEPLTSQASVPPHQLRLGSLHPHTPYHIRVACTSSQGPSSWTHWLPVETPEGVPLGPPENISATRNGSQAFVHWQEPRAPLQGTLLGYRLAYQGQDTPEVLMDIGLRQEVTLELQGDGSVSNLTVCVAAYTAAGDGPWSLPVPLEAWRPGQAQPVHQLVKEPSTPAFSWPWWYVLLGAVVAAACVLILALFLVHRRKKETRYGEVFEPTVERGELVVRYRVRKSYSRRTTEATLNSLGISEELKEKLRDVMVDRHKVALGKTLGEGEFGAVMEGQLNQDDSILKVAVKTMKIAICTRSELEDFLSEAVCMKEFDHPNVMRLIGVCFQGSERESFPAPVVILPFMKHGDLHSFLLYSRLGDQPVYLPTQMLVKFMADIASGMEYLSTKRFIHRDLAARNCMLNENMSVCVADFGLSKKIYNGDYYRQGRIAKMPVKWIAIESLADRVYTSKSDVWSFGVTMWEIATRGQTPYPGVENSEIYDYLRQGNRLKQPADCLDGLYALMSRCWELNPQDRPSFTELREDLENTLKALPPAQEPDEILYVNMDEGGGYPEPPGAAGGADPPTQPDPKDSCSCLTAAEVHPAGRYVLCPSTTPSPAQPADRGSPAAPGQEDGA
Description: Inhibition of AXL (unknown origin) by FRET assay.

In the next assay the test system is SK-MEL-1. The assay is described as follows: Antiproliferative activity against human SK-MEL-1 cells assessed as growth inhibition incubated at 10 uM for 24 hrs by MTT assay relative to control. The assay is classed as functional. To be noted: read-out: GI.
Assay [15] deals with Cyclin-dependent kinase 2 (Homo sapiens, UniProt P24941). Description: Inhibition of CDK2 (unknown origin) by FRET assay.

Sequence of Cyclin-dependent kinase 5 (Q00535 whole entry): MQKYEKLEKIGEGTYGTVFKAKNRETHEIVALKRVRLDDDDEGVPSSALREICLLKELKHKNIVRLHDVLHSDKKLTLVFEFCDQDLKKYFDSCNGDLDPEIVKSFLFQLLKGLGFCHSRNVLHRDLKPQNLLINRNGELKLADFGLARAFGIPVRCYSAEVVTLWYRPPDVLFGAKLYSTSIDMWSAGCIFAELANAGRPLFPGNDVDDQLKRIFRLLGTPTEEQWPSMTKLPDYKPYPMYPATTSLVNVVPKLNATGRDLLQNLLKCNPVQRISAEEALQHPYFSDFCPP
Sequence of Insulin-like growth factor 1 receptor (P08069 31-736 limits assumed): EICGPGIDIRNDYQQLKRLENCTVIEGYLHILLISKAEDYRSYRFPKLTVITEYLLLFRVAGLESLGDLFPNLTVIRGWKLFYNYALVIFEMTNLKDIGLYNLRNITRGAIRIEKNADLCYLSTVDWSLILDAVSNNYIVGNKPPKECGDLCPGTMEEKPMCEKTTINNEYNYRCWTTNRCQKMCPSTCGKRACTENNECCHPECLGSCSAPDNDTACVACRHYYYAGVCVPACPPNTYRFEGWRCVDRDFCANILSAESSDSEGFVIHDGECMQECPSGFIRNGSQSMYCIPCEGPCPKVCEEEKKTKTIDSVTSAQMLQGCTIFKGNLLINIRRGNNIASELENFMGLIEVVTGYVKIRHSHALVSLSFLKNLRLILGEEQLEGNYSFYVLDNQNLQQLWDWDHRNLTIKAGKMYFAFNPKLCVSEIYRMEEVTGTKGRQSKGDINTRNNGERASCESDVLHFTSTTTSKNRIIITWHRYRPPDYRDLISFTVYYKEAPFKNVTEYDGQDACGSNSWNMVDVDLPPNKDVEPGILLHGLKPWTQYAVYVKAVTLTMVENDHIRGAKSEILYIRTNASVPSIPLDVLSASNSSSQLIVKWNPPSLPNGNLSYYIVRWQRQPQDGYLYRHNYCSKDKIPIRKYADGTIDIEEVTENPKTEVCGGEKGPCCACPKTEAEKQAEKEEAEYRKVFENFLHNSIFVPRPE
Sequence of Insulin-like growth factor 1 receptor (P08069 741-1367 limits assumed): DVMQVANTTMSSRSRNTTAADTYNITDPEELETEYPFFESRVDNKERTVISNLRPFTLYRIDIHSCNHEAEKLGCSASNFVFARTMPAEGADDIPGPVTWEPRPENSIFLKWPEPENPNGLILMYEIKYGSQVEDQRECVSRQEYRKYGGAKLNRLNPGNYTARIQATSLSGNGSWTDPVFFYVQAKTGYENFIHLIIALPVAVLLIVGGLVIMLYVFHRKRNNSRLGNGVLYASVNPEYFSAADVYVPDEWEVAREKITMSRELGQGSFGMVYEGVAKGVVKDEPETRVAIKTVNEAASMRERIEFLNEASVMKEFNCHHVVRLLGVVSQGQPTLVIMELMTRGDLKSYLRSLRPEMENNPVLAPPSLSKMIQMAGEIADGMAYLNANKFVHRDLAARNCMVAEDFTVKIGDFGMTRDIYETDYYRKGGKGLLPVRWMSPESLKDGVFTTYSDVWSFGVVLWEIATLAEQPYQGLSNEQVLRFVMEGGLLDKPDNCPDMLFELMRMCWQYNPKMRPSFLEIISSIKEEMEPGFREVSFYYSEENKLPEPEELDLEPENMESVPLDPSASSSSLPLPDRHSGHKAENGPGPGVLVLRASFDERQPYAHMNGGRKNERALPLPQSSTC

Broadly, the IC50 is the concentration at which inhibition is half-maximal. Regarding `COc1ccc(C(=O)N2CCN(c3nnc(Cc4ccccc4)c4ccccc34)CC2)cc1`, the inhibition of growth at 10 µM came out at 66.7% in [1]; 2% with T84; 1.02% in the assay on MOLT-4; 5.26% in the assay with BT-549; 4.09% with MCF7; 1.58% in the assay on HT-29. Also, the inhibition of growth at 10 µM with A-375 turned out to be 5.3%; in assay [10], 42%; in the assay with KG-1, 0.91%; in the assay with G-361, 3.45%; with SK-MEL-1, 11.8%. The 50% inhibitory concentration (IC50) in assay [2] turned out to be 14.3 µM; in assay [3], 8.605 µM; in [4], 4.08 µM; in assay [5], 0.0831 µM; in assay [6], 4.67 µM; in [7], 4.85 µM. In addition, the 50% inhibitory concentration (IC50) in assay [9] was found to be 5.55 µM; in assay [11] it was 6.38 µM; in assay [13], 0.606 µM; in assay [14], 1.52 µM; in [15], 0.301 µM. The Ratio IC50 in assay [8] is 3.62; in [12], 7.29.
As to `S=C(Nc1ccccc1)N1CCN(c2nnc(Cc3ccccc3)c3ccccc23)CC1`, the inhibition of growth at 10 µM was determined as 78.4% in [1]; 56% with T84; 43% in the assay on MOLT-4; 42.1% with BT-549; 64.6% with MCF7; 20.7% in the assay with HT-29. Besides, the inhibition of growth at 10 µM in the assay with A-375 came to 38.2%; in assay [10], 85.2%; in the assay with KG-1, 61.9%; in the assay on G-361, 58.9%; in the assay with SK-MEL-1, 50.9%. Besides, the IC50 in assay [2] was 1.61 µM; in [3] it was 2.507 µM; in assay [4] it was 2.37 µM; in [5], 0.07 µM; in assay [6], 8.75 µM; in assay [7], 2.54 µM. Moreover, the IC50 was found to be 4.97 µM in [9]; 5.23 µM in assay [11]; 0.947 µM in assay [13]; 1.26 µM in assay [14]; 0.24 µM in [15]. Also, the Ratio IC50 in assay [8] came out at 3.42; in assay [12], 13.5.
As to `COc1ccc(Cc2nnc(N3CCN(C(=S)Nc4ccc(Cl)cc4)CC3)c3ccccc23)cc1`, the inhibition of growth at 10 µM in assay [1] came out at 86.4%; with T84, 81.4%; with MOLT-4, 78.4%; with BT-549, 75.4%; in the assay with MCF7, 71.9%; with HT-29, 80.1%. Moreover, the inhibition of growth at 10 µM is 85.6% in the assay on A-375; 85.8% in assay [10]; 63.9% with KG-1; 72.3% in the assay on G-361; 64.7% in the assay on SK-MEL-1. Moreover, the IC50 in assay [2] was 1.62 µM; in assay [3], 4.354 µM; in [4], 7.44 µM; in [5], 0.0495 µM; in [6] it was 2.47 µM; in assay [7] it was 1.89 µM. Further, the IC50 in assay [9] turned out to be 4.15 µM; in [11], 2.37 µM; in assay [13] it was 0.716 µM; in [14], 2.17 µM; in [15], 0.534 µM. Further, the Ratio IC50 in [8] is 10.8; in assay [12], 14.5.
With `S=C(Nc1ccc(Cl)cc1)N1CCN(c2nnc(Cc3ccccc3)c3ccccc23)CC1`, the inhibition of growth at 10 µM in assay [1] was determined as 64.1%; in the assay with T84, 12.2%; in the assay on MOLT-4, 19.6%; with BT-549 it was 18.6%; in the assay on MCF7, 7.64%; in the assay on HT-29, 10.8%. In addition, the inhibition of growth at 10 µM with A-375 was determined as 8.39%; in assay [10], 49.3%; with KG-1, 8.92%; in the assay on G-361, 1.08%; in the assay on SK-MEL-1, 5.4%. Moreover, the IC50 in assay [2] turned out to be 11.9 µM; in assay [3] it was 5.278 µM; in assay [4], 6.3 µM; in [5], 0.109 µM; in [6], 4.99 µM; in assay [7], 6.75 µM. In addition, the IC50 was 6.61 µM in [9]; 5.21 µM in [11]; 0.358 µM in assay [13]; 3.63 µM in assay [14]; 0.341 µM in assay [15]. Also, the Ratio IC50 in assay [8] was determined as 3.13; in assay [12] it was 3.29.
Turning to `O=C(Nc1ccc(Cl)c(C(F)(F)F)c1)N1CCN(c2nnc(Cc3ccccc3)c3ccccc23)CC1`, the inhibition of growth at 10 µM in [1] was determined as 42.4%; in the assay on T84, 4.71%; with MOLT-4 it was 5.22%; in the assay with BT-549, 1.08%; with MCF7, 2.2%; in the assay with HT-29, 18.9%. Also, the inhibition of growth at 10 µM worked out at 9.17% in the assay with A-375; 55.4% in [10]; 1.35% with KG-1; 2.47% in the assay with G-361; 3.34% in the assay with SK-MEL-1. For the same molecule, the IC50 in assay [2] came out at 8.6 µM; in [3], 8.565 µM; in assay [4], 4.25 µM; in [5] it was 0.104 µM; in [6], 1.48 µM; in [7], 13.1 µM. For the same molecule, the IC50 was determined as 5.18 µM in [9]; 2.68 µM in assay [11]; 0.405 µM in [13]; 6.95 µM in assay [14]; 0.722 µM in [15]. Also, the Ratio IC50 was 6.97 in assay [8] and 3.91 in [12].
For the molecule `COc1ccc(Cc2nnc(N3CCN(C(=O)Nc4ccc(OC)cc4)CC3)c3ccccc23)cc1`, the inhibition of growth at 10 µM came to 66.1% in assay [1]; 57.5% with T84; 25.4% in the assay on MOLT-4; 50.3% with BT-549; 24.2% with MCF7; 32.1% with HT-29. In addition, the inhibition of growth at 10 µM in the assay with A-375 amounted to 25.8%; in assay [10] it was 73.1%; in the assay with KG-1 it was 0.31%; in the assay on G-361, 49%; with SK-MEL-1, 39%. Further, the 50% inhibitory concentration (IC50) in [2] was determined as 4.12 µM; in [3] it was 3.512 µM; in assay [4], 0.865 µM; in assay [5], 0.052 µM; in assay [6], 3.7 µM; in assay [7], 5.09 µM. The IC50 in assay [9] stood at 1.57 µM; in assay [11], 4.82 µM; in assay [13], 0.14 µM; in [14], 4.74 µM; in assay [15] it was 0.345 µM. For the same molecule, the figures for the Ratio IC50 in assay [8] and in [12] were 6.63 and 2.7, respectively.

Values taken from ChEMBL document CHEMBL5352421, “Identification of novel piperazine-tethered phthalazines as selective CDK1 inhibitors endowed with in vitro anticancer activity toward the pancreatic cancer” (Eur J Med Chem, 2022).
